“And” between values parts separate entries of the source, which are not always exact repeats. Equal values may be shown once. Inconclusive results are not listed.
Test system: BDF1 mice, colon carcinoma 38 sc, T/C %
Assay: NCI In Vivo Anticancer Drug Screen. Data for tumor model Colon Carcinoma 38 (subcutaneous) in B6D2F1 (BDF1) mice
How it was run: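 Transplantable tumor in mice; compound-treated vs vehicle-dosed controls. Measured survival or tumor size; value = T ÷ C.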

[1] = endpoint: median tumor weight (est.), dose: 0.25 mg/kg/injection, schedule: Q07DX002 (ip), vehicle: saline, higher = larger tumour
[2] = endpoint: median tumor weight (est.), dose: 25.0 mg/kg/injection, schedule: Q07DX002 (ip), vehicle: saline with Tween-80, higher = larger tumour
[3] = endpoint: median tumor weight (est.), dose: 50.0 mg/kg/injection, schedule: Q07DX002 (ip), vehicle: saline with Tween-80, higher = larger tumour

## CC(=O)OCC12CCC(C)=CC1OC1C(=O)CC2(C)C12CO2 (configuration not stated)
[1]
  T/C: 111 % of control
endpoint: median tumor weight (est.), dose: 10.0 mg/kg/injection, schedule: Q07DX002 (ip), vehicle: saline, higher = larger tumour
  T/C: 155 % of control
endpoint: median tumor weight (est.), dose: 20.0 mg/kg/injection, schedule: Q07DX002 (ip), vehicle: saline, higher = larger tumour
  T/C: 119 % of control

## NC(C/[N+]([O-])=N/O)C(=O)O (configuration not stated)
endpoint: median survival time, dose: 52.7 mg/kg/injection, schedule: Q04DX005 (ip), vehicle: alkali diluted with saline, higher = longer survival
  T/C: 109 % of control
endpoint: median survival time, dose: 79.0 mg/kg/injection, schedule: Q04DX005 (ip), vehicle: alkali diluted with saline, higher = longer survival
  T/C: 86 % of control and 88 % of control
endpoint: median survival time, dose: 119.0 mg/kg/injection, schedule: Q04DX005 (ip), vehicle: alkali diluted with saline, higher = longer survival
  T/C: 109 % of control and 116 % of control
endpoint: median survival time, dose: 178.0 mg/kg/injection, schedule: Q04DX005 (ip), vehicle: alkali diluted with saline, higher = longer survival
  T/C: 100 % of control and 102 % of control
endpoint: median survival time, dose: 267.0 mg/kg/injection, schedule: Q04DX005 (ip), vehicle: alkali diluted with saline, higher = longer survival
  T/C: 93 % of control and 94 % of control
endpoint: median survival time, dose: 400.0 mg/kg/injection, schedule: Q04DX005 (ip), vehicle: alkali diluted with saline, higher = longer survival
  T/C: 95 % of control
endpoint: median survival time, dose: 600.0 mg/kg/injection, schedule: Q04DX005 (ip), vehicle: alkali diluted with saline, higher = longer survival
  T/C: 79 % of control
endpoint: median tumor weight (est.), dose: 32.0 mg/kg/injection, schedule: Q07DX003 (ip), vehicle: saline, higher = larger tumour
  T/C: 108 % of control
endpoint: median tumor weight (est.), dose: 64.0 mg/kg/injection, schedule: Q07DX003 (ip), vehicle: saline, higher = larger tumour
  T/C: 70 % of control
endpoint: median tumor weight (est.), dose: 128.0 mg/kg/injection, schedule: Q07DX003 (ip), vehicle: saline, higher = larger tumour
  T/C: 92 % of control
endpoint: median tumor weight (est.), dose: 256.0 mg/kg/injection, schedule: Q07DX003 (ip), vehicle: saline, higher = larger tumour
  T/C: 100 % of control
endpoint: median tumor weight (est.), dose: 512.0 mg/kg/injection, schedule: Q07DX003 (ip), vehicle: saline, higher = larger tumour
  T/C: 56 % of control
endpoint: median tumor weight (est.), dose: 1024.0 mg/kg/injection, schedule: Q07DX003 (ip), vehicle: saline, higher = larger tumour
  T/C: 72 % of control

## C/C=C1\C[C@@H]2C(OC)Nc3cc(O)c(OC)cc3C(=O)N2C1 (some centres not stated)
endpoint: median tumor weight (est.), dose: 0.06 mg/kg/injection, schedule: Q07DX002 (ip), vehicle: saline, higher = larger tumour
  T/C: 121 % of control
endpoint: median tumor weight (est.), dose: 0.12 mg/kg/injection, schedule: Q07DX002 (ip), vehicle: saline, higher = larger tumour
  T/C: 98 % of control
endpoint: median tumor weight (est.), dose: 0.12 mg/kg/injection, schedule: Q07DX002 (ip), vehicle: suspension in saline, higher = larger tumour
  T/C: 122 % of control
[1]
  T/C: 102 % of control
endpoint: median tumor weight (est.), dose: 0.25 mg/kg/injection, schedule: Q07DX002 (ip), vehicle: suspension in saline, higher = larger tumour
  T/C: 108 % of control
endpoint: median tumor weight (est.), dose: 0.5 mg/kg/injection, schedule: Q07DX002 (ip), vehicle: saline, higher = larger tumour
  T/C: 102 % of control
endpoint: median tumor weight (est.), dose: 0.5 mg/kg/injection, schedule: Q07DX002 (ip), vehicle: suspension in saline, higher = larger tumour
  T/C: 166 % of control
endpoint: median tumor weight (est.), dose: 1.0 mg/kg/injection, schedule: Q07DX002 (ip), vehicle: saline, higher = larger tumour
  T/C: 105 % of control
endpoint: median tumor weight (est.), dose: 1.0 mg/kg/injection, schedule: Q07DX002 (ip), vehicle: suspension in saline, higher = larger tumour
  T/C: 84 % of control

## CC1=C2CC(C)(C)/C=C\C(=O)/C(C)=C\C3=C[C@H](C)C[C@]3(O2)C1=O
endpoint: median tumor weight (est.), dose: 1.5 mg/kg/injection, schedule: Q07DX002 (ip), vehicle: Klucel (hydroxypropylcellulose) (HPC), higher = larger tumour
  T/C: 80 % of control
endpoint: median tumor weight (est.), dose: 3.0 mg/kg/injection, schedule: Q07DX002 (ip), vehicle: Klucel (hydroxypropylcellulose) (HPC), higher = larger tumour
  T/C: 100 % of control
endpoint: median tumor weight (est.), dose: 6.0 mg/kg/injection, schedule: Q07DX002 (ip), vehicle: Klucel (hydroxypropylcellulose) (HPC), higher = larger tumour
  T/C: 157 % of control

## [Cl][Pt+2][Cl].[NH-]CC1(C[NH-])CCC1
endpoint: median tumor weight (est.), dose: 12.5 mg/kg/injection, schedule: Q07DX002 (ip), vehicle: suspension in saline, higher = larger tumour
  T/C: 50 % of control

## Nc1ccc(C(OC(=O)c2cc3ccccc3c(Cc3c(O)c(C(=O)OC(c4ccc(N)cc4)(c4ccc(N)cc4)c4ccc(N)cc4)cc4ccccc34)c2O)(c2ccc(N)cc2)c2ccc(N)cc2)cc1
endpoint: median tumor weight (est.), dose: 1.56 mg/kg/injection, schedule: Q07DX002 (ip), vehicle: saline with Tween-80, higher = larger tumour
  T/C: 100 % of control
endpoint: median tumor weight (est.), dose: 3.12 mg/kg/injection, schedule: Q07DX002 (ip), vehicle: saline with Tween-80, higher = larger tumour
  T/C: 70 % of control
endpoint: median tumor weight (est.), dose: 6.25 mg/kg/injection, schedule: Q07DX002 (ip), vehicle: saline with Tween-80, higher = larger tumour
  T/C: 92 % of control
[2]
  T/C: 84 % of control and 93 % of control
[3]
  T/C: 114 % of control

## CCC1OC(OC)C=CC1=O (configuration not stated)
[2]
  T/C: 92 % of control
[3]
  T/C: 73 % of control
endpoint: median tumor weight (est.), dose: 100.0 mg/kg/injection, schedule: Q07DX002 (ip), vehicle: saline with Tween-80, higher = larger tumour
  T/C: 73 % of control

Reference: PubChem BioAssay AID212 (DTP/NCI, 2004)
